Laboratory results from patent publication US7923461B2, “TNF-α production inhibitors” (Santen Pharmaceutical Co., Ltd., priority 2000, dated 2011).

Row | melting point | SMILES
1 | 96.3 to 99.4 °C | CCCCCN(CCC12CC3CC(CC(C3)C1)C2)C(=O)NCCc1ccc(O)cc1
2 | 161.8 to 164.4 °C | Cl.O=C(NCc1ccncc1)N(CCC1CCCCC1)Cc1cccs1
3 | 120 to 122.5 °C | Cl.O=C(NCCCc1ccncc1)N(CCC12CC3CC(CC(C3)C1)C2)CCC12CC3CC(CC(C3)C1)C2
4 | 133.7 to 137 °C | CCCCCN(CCC12CC3CC(CC(C3)C1)C2)C(=O)CNCCc1ccncc1.Cl.Cl
5 | 120.5 to 131.7 °C | CC(C)CCN(CCC(C)C)C(=O)NCCCc1ccncc1.Cl
6 | ~ 100 °C | Cl.Cl.NN(CCC12CC3CC(CC(C3)C1)C2)C(=O)NCCCc1ccncc1
7 | 64 to 74.5 °C | Cl.O=C1CCN(CCC2CCCCC2)C(=O)N1Cc1ccncc1
8 | 170 °C | Cl.O=C1CCN(CCCc2ccncc2)C(=O)N1CCC12CC3CC(CC(C3)C1)C2
9 | 76 to 79 °C | O=C(NCCCc1ccncc1)N1CCc2ccccc2C1 [Compound No. 1-5, N-[3-(4-Pyridyl)propyl]-1,2,3,4-tetrahydroisoquinoline-2-carboxamide]
10 | 94 to 98 °C | O=C(NCCCc1ccncc1)N1CCOCC1 [Compound No. 1-6, N-[3-(4-Pyridyl)propyl]-4-morpholinecarboxamide]
11 | 104 to 106.5 °C | CN(C)CCN(CCC12CC3CC(CC(C3)C1)C2)C(=O)NCCCc1ccncc1 [Compound No. 1-15, 1-[2-(1-Adamantyl)ethyl]-1-[2-(dimethylamino)ethyl]-3-[3-(4-pyridyl)propyl]urea]
12 | 99 to 103 °C | CCCN(CCC12CC3CC(CC(C3)C1)C2)C(=O)NCCCc1ccncc1 [Compound No. 1-16, 1-[2-(1-Adamantyl)ethyl]-1-propyl-3-[3-(4-pyridyl)propyl]urea]
13 | 152 to 154 °C | C#CCN(CCC12CC3CC(CC(C3)C1)C2)C(=O)NCCCc1ccncc1 [Compound No. 1-17, 1-[2-(1-Adamantyl)ethyl]-1-(2-propynyl)-3-[3-(4-pyridyl)propyl]urea]
14 | 108 to 115.5 °C | O=C(NCCCc1ccncc1)N(CCC12CC3CC(CC(C3)C1)C2)C1CC1 [Compound No. 1-19, 1-[2-(1-Adamantyl)ethyl]-1-cyclopropyl-3-[3-(4-pyridyl)propyl]urea]
15 | 155 to 158 °C | O=C(NCCCc1ccncc1)N(CCC12CC3CC(CC(C3)C1)C2)CC1CCCC1 [Compound No. 1-21, 1-[2-(1-Adamantyl)ethyl]-1-cyclopentylmethyl-3-[3-(4-pyridyl)propyl]urea]
16 | 99 to 102 °C | C=CCN(CCC12CC3CC(CC(C3)C1)C2)C(=O)NCCCc1ccncc1 [Compound No. 1-23, 1-[2-(1-Adamantyl)ethyl]-1-allyl-3-[3-(4-pyridyl)propyl]urea]
17 | 119.5 to 121.5 °C | CCCCCCN(CCC12CC3CC(CC(C3)C1)C2)C(=O)NCCCc1ccncc1 [Compound No. 1-29, 1-[2-(1-Adamantyl)ethyl]-1-hexyl-3-[3-(4-pyridyl)propyl]urea]

Row | melting point | SMILES
18 | 108 to 109 °C | C=C(C)CN(CCC12CC3CC(CC(C3)C1)C2)C(=O)NCCCc1ccncc1 [Compound No. 1-33, 1-[2-(1-Adamantyl)ethyl]-1-(2-methyl-2-propenyl)-3-[3-(4-pyridyl)propyl]urea]
19 | 99 to 109 °C | CN(CCC12CC3CC(CC(C3)C1)C2)C(=O)NCCCc1ccncc1 [Compound No. 1-40, 1-[2-(1-Adamantyl)ethyl]-1-methyl-3-[3-(4-pyridyl)propyl]urea]
20 | 106 to 115 °C | CCN(CCC12CC3CC(CC(C3)C1)C2)C(=O)NCCCc1ccncc1 [Compound No. 1-41, 1-[2-(1-Adamantyl)ethyl]-1-ethyl-3-[3-(4-pyridyl)propyl]urea]
21 | 64.7 to 65.8 °C | CCCCCN(CCC1CCCCC1)C(=O)NCc1ccncc1 [Compound No. 1-52, 1-(2-Cyclohexylethyl)-1-pentyl-3-(4-pyridyl)methylurea]
22 | 109.5 to 118 °C | CCCCN(CCC12CC3CC(CC(C3)C1)C2)C(=O)NCCCc1ccncc1 [Compound No. 1-57, 1-[2-(1-Adamantyl)ethyl]-1-butyl-3-[3-(4-pyridyl)propyl]urea]
23 | 107 to 112 °C | O=C(N(CCCc1ccncc1)Cc1ccccc1)N(CCCc1ccccc1)C1CCCCC1 [Compound No. 1-60, 1-Cyclohexyl(phenyl)methyl-1-(3-phenylpropyl)-3-[3-(4-pyridyl)propyl]urea]
24 | 143 to 145.5 °C | O=C(NCCCc1ccncc1)N(C1CCCCC1)C1CCCCC1 [Compound No. 1-61, 1,1-Dicyclohexyl-3-[3-(4-pyridyl)propyl]urea]
25 | 87.5 to 92 °C | CCCCCN(CCC12CC3CC(CC(C3)C1)C2)C(=O)NCc1ccccn1 [Compound No. 1-72, 1-[2-(1-Adamantyl)ethyl]-1-pentyl-3-(2-pyridyl)methylurea]
26 | 88.5 to 101.5 °C | CCCCCN(CCC12CC3CC(CC(C3)C1)C2)C(=O)NCc1cccnc1 [Compound No. 1-73, 1-[2-(1-Adamantyl)ethyl]-1-pentyl-3-(3-pyridyl)methylurea]
27 | 96.5 to 108 °C | CCCCCN(CCC12CC3CC(CC(C3)C1)C2)C(=O)NCc1ccncc1 [Compound No. 1-74, 1-[2-(1-Adamantyl)ethyl]-1-pentyl-3-(4-pyridyl)methylurea]
28 | 80 to 100 °C | CCCCCN(CCC12CC3CC(CC(C3)C1)C2)C(=O)NCCc1ccccn1 [Compound No. 1-75, 1-[2-(1-Adamantyl)ethyl]-1-pentyl-3-[2-(2-pyridyl)ethyl]urea]
29 | 112.5 to 114.5 °C | CCCCCN(CCC12CC3CC(CC(C3)C1)C2)C(=O)NCCc1cccnc1 [Compound No. 1-76, 1-[2-(1-Adamantyl)ethyl]-1-pentyl-3-[2-(3-pyridyl)ethyl]urea]
30 | 107 to 118 °C | CCCCCN(CCC12CC3CC(CC(C3)C1)C2)C(=O)NCCc1ccncc1 [Compound No. 1-80, 1-[2-(1-Adamantyl)ethyl]-1-pentyl-3-[2-(4-pyridyl)ethyl]urea]
31 | 84.4 to 85.7 °C | CCCCCN(CCC12CC3CC(CC(C3)C1)C2)C(=O)NCCCc1ccccn1 [Compound No. 1-83, 1-[2-(1-Adamantyl)ethyl]-1-pentyl-3-[3-(2-pyridyl)propyl]urea]
32 | 74.1 to 78.1 °C | CCCCCN(CCC12CC3CC(CC(C3)C1)C2)C(=O)NCCCCc1ccncc1 [Compound No. 1-87, 1-[2-(1-Adamantyl)ethyl]-1-pentyl-3-[4-(4-pyridyl)butyl]urea]
33 | 80.2 to 102 °C | CCCCCN(CCC12CC3CC(CC(C3)C1)C2)C(=O)NCCCc1ccnc2ccccc12 [Compound No. 1-91, 1-[2-(1-Adamantyl)ethyl]-1-pentyl-3-[3-(4-quinolyl)propyl]urea]
34 | 123 to 124.8 °C | O=C(NCCCc1ccncc1)N(CCCc1ccccc1)C(c1ccccc1)c1ccccc1 [Compound No. 1-93, 1-Diphenylmethyl-1-(3-phenylpropyl)-3-[3-(4-pyridyl)propyl]urea]

Row | SMILES | melting point
35 | CC(C)(C)OC(=O)CCN(CCC12CC3CC(CC(C3)C1)C2)C(=O)NCCCc1ccncc1 [Compound No. 1-69, 1-[2-(1-Adamantyl)ethyl]-1-[2-(t-butoxycarbonyl)ethyl]-3-[3-(4-pyridyl)propyl]urea] | 124.5 to 127 °C
